Patent US20140343249A1, “CELL KILLING FUSION PEPTIDE EXHIBITING TUMOR CELL-SPECIFIC NECROSIS INDUCTION AND TUMOR REGRESSION” (INDUSTRY-ACADEMIC COOPERATION FOUNDATION, CHOSUN UNIVERSITY, priority 2011, published 2014)
Where no end group is shown, it is not given here.

Legend:
[1] = Movement activity of mouse after I.V. injection; type: in vivo; conditions: 10-30 min after I.V. injection of 75 ul (1 mM) into BalB/C mouse (about 20 g)
CT-26 tumor = test: In vivo screening of tumor regression activity, CT-26 tumor in BALB/C mice; set-up: key to In vivo Screening: NR: no regression (no decrease on the tumor volume); ND: not determined; conditions: for In vivo Screening: CT-26 tumor-bearing BALB/C mice, intravenous injection; for toxicity to the experimental animals: 100 ul (1 mM) intravenously 2-3 times (1 injection/day)
Procedure: In order to test tumor regression activity of the cell-killing CKP fusion peptides manufactured in Example 1, colon cell line, CT-26 (1.5×10^5 cells) was subcutaneously injected into dorsal skin of BALB/C mice of 6 weeks old to form tumor. After about 10 days, when the formed tumor volume reach to about 70±10 mm^3, the cancer cell specific CKP fusion peptide 100 ul (1 mM) was intravenously injected continuously 2-3 times (1 injection/day) into 3 mice, respectively, and after 10-13 days, change on the tumor tissue volume (length×wide^2×0.5) was observed.

[2] = test system: HeLa cells, cervical cancer cell line; test: Cell-killing activity of CKP peptide variants in HeLa, crystal violet staining; type: cell-based, human; conditions: 0-40 μM, 24 hours, peptides linked to PTD RRRRRRRRG
Text: In order to examine whether variants, in which some amino acids of the CKP peptide (SEQ ID NO: 21; KLLNLISKLF) of the present invention are substituted, also have cell-killing activity or not, CKP2 (1 amino acid was substituted) (SEQ ID NO: 22; KALNLISKLF), CKP3 (2 amino acids were substituted) (SEQ ID NO: 23; KLAALISKLF), CKP4 (2 amino acids were substituted) (SEQ ID NO: 24; KLLNLIAALF) and CKP5 (3 amino acids were substituted) (SEQ ID NO: 25; KALNLIAALF), which are CKP peptide variants in which 1-3 of amino acid residues linked to the known protein transduction domain (PTD) having RRRRRRRRG (RQ) sequence are substituted, were synthesized by the procedure described in Example 1. Further, in order to investigate influence of substitution at the leucine's repeat in the CKP, the CKP peptide variants, CKP6 (2nd and 3rd L were substituted to A) (SEQ ID NO: 26; KAANLISKLF), CKP7 (5th L was substituted to A) (SEQ ID NO: 27; KLLNAISKLF) and CKP8 (9th L was substituted to A) (SEQ ID NO: 28; KLLNLISKAF) linked to the RRRRRRRRG (RQ) sequence of the protein transduction domain (PTD) were synthesized by the procedure described in Example 1. In order to test cell-killing activity of the variants, a cervical cancer cell line, HeLa cells were cultured, and the culture medium was replaced with culture medium containing 0, 1, 5, 10, 15, 20, 30 and 40 μM CKP peptide, respectively, followed by further culturing for 24 hours. Living cells attached to the bottom were stained with 100 μl 0.5% crystal violet solution for 10 min, and washed off with distilled water or tap water to remove dead cells floating on the culture medium and also to destain the crystal violet solution. Then, the cells were observed by photography after placing the culture vessel under a fluorescent lamp box as depicted in FIG. 14. The living cells attached to the bottom and stained with the crystal violet were appeared blue color. […] Accordingly, it was identified that the Leucine sequence is a region playing a critical role in cell-killing activity of the CKP.

cells = conditions: in 10 minutes; cited from earlier work
[3] = Hepatocyte toxicity: ALT and AST released to blood; type: in vivo, mouse; conditions: blood of treated groups by the time versus untreated control group
Procedure: In order to confirm toxicity of the cell-killing CKP fusion peptide (CTD7:CKP), the amounts of alanine amino transferase (ALT) and aspartate amino transferase (AST) released to blood from hepatocytes of the damaged liver were measured and whether the hepatocytes was damaged or not was confirmed, so as to judge toxicity by the cell-killing CKP fusion peptide.

splenocytes = test: Normal cell necrosis activity in splenocytes by XTT method; type: cell-based, mouse; conditions: splenocytes from BALB/c mice, 5, 10 and 20 μM, after 15 min
Text: In order to test cell necrosis inducing activity of the cell-killing CKP fusion peptide (CTD7:CKP) selected in Example 3 in normal cells, primary peritoneal macrophages and splenocytes were isolated from BALB/c mice.
In order to obtain splenocytes, complete RPMI media was put into a cell culture dish, male mouse spleen was isolated, and tissue thereof was crushed and centrifuged. Pellet was washed once with media and centrifuged again, and ACK lysis buffer (0.15 M NH4Cl, […], 0.01 M Na2EDTA, pH 7.2-7.4) was added thereto and centrifuged again. Then the pellet was cultured in 5% FBS-containing complete RPMI media for primary culture of the splenocytes, and the media was replaced with culture medium containing 5, 10 and 20 μM of the cell-killing CKP fusion peptide (CTD7:CKP), and after 15 min, cell necrosis inducing activity was confirmed by XTT method.

liver tissue = test: Toxicity in normal tissue (liver), histology; type: in vivo, mouse; conditions: intravenous injection, liver sections by the time
Procedure: In order to evaluate the degree of toxicity to the liver tissue, liver tissue section was prepared as described in Example 8, and pathologically observed in a normal mice group not treated with the peptide, a tumor-formed group intravenously injected with 0.85% normal saline and groups intravenously injected with the cell-killing CKP fusion peptide by the time.

Q: Which “Movement Activities” value [1] does the source give for “CGKRKGGKLLNLISKLF [CTD2:CKP, CGKRKGGKLLNLISKLF]” here?
A: Normal

Q: For “CGRDKGPDCKLLNLISKLF (Cell killing fusion peptide) [CTD12:CKP]”, which “Movement Activities” value [1] is on record?
A: Normal

Q: What does the source list for “CNGRCGGKLLNLISKLF (Cell killing fusion peptide) [CTD1:CKP]”?
A: In vivo Screening (CT-26 tumor): NR; Movement Activities [1]: Slow

Q: With “CRGDKGGKLLNLISKLF [CTD18:CKP, CRGDKGGKLLNLISKLF]” as the sequence, how does the “Movement Activities” value [1] read?
A: Slow

Q: Which “Movement Activities” value [1] does the source give for “CRGDKGPDCKLLNLISKLF (Cell killing fusion peptide) [CTD15:CKP]” here?
A: Normal

Q: With KAANLISKLF [CKP6] as the sequence, how does the “cell-killing activity compared with the CKP peptide” value [2] read?
A: much decreased cell-killing activity

Q: For KALNLIAALF [CKP5], which “cell-killing activity compared with the CKP peptide” value [2] is on record?
A: slightly decreased cell-killing activity

Q: Which “cell-killing activity compared with the CKP peptide” value [2] does the source give for KALNLISKLF [CKP2] here?
A: slightly decreased cell-killing activity

Q: Which “cell-killing activity compared with the CKP peptide” value [2] does the source give for KLAALISKLF [CKP3] here?
A: slightly decreased cell-killing activity

Q: With KLLNAISKLF [CKP7] as the sequence, how does the “cell-killing activity compared with the CKP peptide” value [2] read?
A: much decreased cell-killing activity

Q: For KLLNLIAALF [CKP4], which “cell-killing activity compared with the CKP peptide” value [2] is on record?
A: better cell-killing activity

Q: Which “cell-killing activity compared with the CKP peptide” value [2] does the source give for KLLNLISKAF [CKP8] here?
A: much decreased cell-killing activity

Q: With KLLNLISKLF (Cell Killing Peptide) [MTD] as the sequence, how does the “cells killed (cell necrosis effect)” value (cells) read?
A: ≥ 80%

Q: Which “Movement Activities” value [1] does the source give for “KLLNLISKLFCGRDKGPDC (Cell killing fusion peptide) [CTD13:CKP]” here?
A: Normal

Q: What does the source list for “KLLNLISKLFCGRDKRLYDC (Cell killing fusion peptide) [CTD14:CKP]”?
A: toxicity to the experimental animals (CT-26 tumor): dead; In vivo Screening (CT-26 tumor): Dead; Movement Activities [1]: Dead

Q: With “KLLNLISKLFCRGDKGPDC (Cell killing fusion peptide) [CTD16:CKP]” as the sequence, how does the “Movement Activities” value [1] read?
A: Slow

Q: Which “toxicity to the experimental animals” value (CT-26 tumor) does the source give for “KLLNLISKLFCRGDKRLYDC (Cell killing fusion peptide) [CTD17:CKP]” here?
A: toxicity removing the injected tail by necrosis

Q: And the “In vivo Screening” value (CT-26 tumor)?
A: Toxic

Q: And the “Movement Activities” value [1]?
A: Slow

Q: With “KLLNLISKLFGGCGKRK [CTD3:CKP, KLLNLISKLFGGCGKRK]” as the sequence, how does the “Movement Activities” value [1] read?
A: Normal

Q: Which “Movement Activities” value [1] does the source give for “KLLNLISKLFGGCRGDK [CTD19:CKP, KLLNLISKLFGGCRGDK]” here?
A: Normal

Q: Which “In vivo Screening” value (CT-26 tumor) does the source give for “KLLNLISKLFGGLGDRGDR (Cell killing fusion peptide) [CTD10:CKP]” here?
A: NR

Q: Which “toxicity to the experimental animals” value (CT-26 tumor) does the source give for “KLLNLISKLFGGRLLRLLR [CTD6:CKP, KLLNLISKLFGGRLLRLLR]” here?
A: toxicity removing the injected tail by necrosis

Q: What about the “Movement Activities” value [1] of the same sequence?
A: Normal

Q: For “KLLNLISKLFGGRPARPAR [CTD8:CKP, KLLNLISKLFGGRPARPAR]”, which “Movement Activities” value [1] is on record?
A: Slow

Q: For “RLLRLLRGGKLLNLISKLF [CTD5:CKP, RLLRLLRGGKLLNLISKLF]”, which “toxicity to the experimental animals” value (CT-26 tumor) is on record?
A: toxicity removing the injected tail by necrosis

Q: What about the “Movement Activities” value [1] of the same sequence?
A: Slow

Q: With “RPARPARGGKLLNLISKLF [CTD7:CKP, RPARPARGGKLLNLISKLF]” as the sequence, how does the “ALT released to blood (liver damage index)” value [3] read?
A: no difference

Q: And the “AST released to blood (liver damage index)” value [3]?
A: no difference

Q: What about the “cell-killing activity in normal cells” value (splenocytes) of the same sequence?
A: did not show significant cell-killing activity

Q: And the “toxicity to the experimental animals” value (CT-26 tumor)?
A: no toxicity

Q: And the “damage of liver tissue (histology)” value (liver tissue)?
A: any significant damage was not observed

Q: What about the “Movement Activities” value [1] of the same sequence?
A: Normal

Q: For WDLAWMFRLPVGKLLNLISKLF [CTD11:CKP], which “Movement Activities” value [1] is on record?
A: Normal

Q: Which results are given for “WIFPWIQLKLLNLISKLF [CTD4:CKP, WIFPWIQLKLLNLISKLF]”?
A: toxicity to the experimental animals (CT-26 tumor): toxicity removing the injected tail by necrosis; Movement Activities [1]: Slow
